From the supplement of paper PMC10331698 come the findings set out here.

± gives the standard deviation of the averaged measurements.

Common to all, as to assay: level (log10 ratio to DMSO vehicle control); higher = higher biomarker level / cell amount than vehicle control
Holding throughout (settings): in DMSO

Compound in assay [1]: NC(=O)C(F)(F)C(F)(F)C(F)(F)C(F)F
The procedure: (§1)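 BioMAP Diversity Plus panel of 12 human primary cell co-culture systems (3C, 4H, LPS, SAg, BT, BF4T, BE3C, CASM3C, HDF3CGF, KF3CT, MyoF, Mphg). Compounds were added 1 h before stimulation and left for 24 h (MyoF 48 h; BT 72 h for soluble read-outs or 6 d for IgG). Biomarkers were read by ELISA, cytotoxicity by SRB, PBMC viability and proliferation by Alamar Blue. Each well value was divided by the mean of 8 DMSO control wells on the same plate and log10 transformed; duplicate blinded samples were tested at 4 concentrations.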

Compound in another assay: FC(F)(F)C(F)(F)C(F)(F)CI [Heptafluorobutyl iodide]
The procedure: as §1

Compound in assay [2]: FC(F)(F)C(F)(F)CNCC(F)(F)C(F)(F)F [Bis(1H,1H-perfluoropropyl)amine]
The procedure:
as §1

Compound in a further assay: NC(=O)C(F)(F)C(F)(F)C(F)(F)C(F)(F)F [Nonafluoropentanamide]
The procedure: as §1

Compound in assay [3]: O=C(O)C=CC(F)(C(F)(F)F)C(F)(F)F [3-(Perfluoroisopropyl)-2-propenoic acid]
The procedure: as §1

Compound in assay [4]: O=S(=O)(O)C(F)(F)C(F)(F)C(F)(F)C(F)(F)C(F)(F)C(F)(F)C(F)(F)C(F)(F)C(F)(F)C(F)(F)F [Sodium perfluorodecanesulfonate]
The procedure: as §1

On to BT:sIL-17F, for which the “level (log10)” value in assay [1] (6700 nM) was 0.0335 ± 0.019; in assay [1] (20000 nM) it was -0.0275 ± 0.015; in assay [1] (60000 nM), -0.018 ± 0.023; with Heptafluorobutyl iodide (6700 nM) it was 0.033 ± 0.078; with Heptafluorobutyl iodide (20000 nM), 0.031 ± 0.016; with Heptafluorobutyl iodide (60000 nM), 0.029 ± 0.033. Moreover, the “level (log10)” value in assay [2] (6700 nM) is -0.088 ± 0.042; in assay [2] (20000 nM), -0.0175 ± 0.076; in assay [2] (60000 nM), 0.0375 ± 0.0064; in the assay with Nonafluoropentanamide (6700 nM) it was -0.0305 ± 0.12; in the assay with Nonafluoropentanamide (20000 nM), -0.0695 ± 0.14; with Nonafluoropentanamide (60000 nM), -0.101 ± 0.15. The “level (log10)” value in assay [3] (6700 nM) was -0.088 ± 0.081; in assay [3] (20000 nM), -0.014 ± 0.054; in assay [3] (60000 nM), 0.0025 ± 0.043; in assay [4] (1500 nM), -0.025 ± 0.083; in assay [4] (4400 nM) it was 0.0315 ± 0.1; in assay [4] (13000 nM) it was 0.0615 ± 0.19. For the same test system, the “level (log10)” value in assay [4] (40000 nM) stood at 0.025 ± 0.086.

Regarding BT:Secreted IgG, the “level (log10)” value in assay [1] (6700 nM) is 0.0115 ± 0.073; in assay [1] (20000 nM) it was 0.026 ± 0.0085; in assay [1] (60000 nM), -0.0005 ± 0.026; with Heptafluorobutyl iodide (6700 nM), 0.038 ± 0.02; in the assay with Heptafluorobutyl iodide (20000 nM) it was 0.0585 ± 0.018; in the assay with Heptafluorobutyl iodide (60000 nM), 0.0375 ± 0.028. Moreover, the “level (log10)” value in assay [2] (6700 nM) is 0.0095 ± 0.0021; in assay [2] (20000 nM), 0.001 ± 0.023; in assay [2] (60000 nM), 0.0185 ± 0.00071; with Nonafluoropentanamide (6700 nM), -0.001 ± 0.0014; with Nonafluoropentanamide (20000 nM), -0.006 ± 0.0099; in the assay with Nonafluoropentanamide (60000 nM), -0.005 ± 0.014. Moreover, the “level (log10)” value in assay [3] (6700 nM) is -0.041 ± 0.048; in assay [3] (20000 nM) it was -0.0035 ± 0.016; in assay [3] (60000 nM), -0.0205 ± 0.013; in assay [4] (1500 nM) it was -0.026 ± 0.038; in assay [4] (4400 nM), -0.0155 ± 0.022; in assay [4] (13000 nM), -0.0275 ± 0.046. In addition, the “level (log10)” value in assay [4] (40000 nM) was -0.028 ± 0.028.

LPS:CXCL8/IL-8: the “level (log10)” value is -0.0055 ± 0.0035 in assay [1] (6700 nM); -0.0025 ± 0.035 in assay [1] (20000 nM); 0.016 ± 0.12 in assay [1] (60000 nM); 0.022 ± 0.13 in the assay with Heptafluorobutyl iodide (6700 nM); 0.042 ± 0.076 with Heptafluorobutyl iodide (20000 nM); 0.087 ± 0.0071 with Heptafluorobutyl iodide (60000 nM). For the same test system, the “level (log10)” value in assay [2] (6700 nM) is -0.0185 ± 0.005; in assay [2] (20000 nM), -0.0325 ± 0.037; in assay [2] (60000 nM) it was 0.017 ± 0.099; in the assay with Nonafluoropentanamide (6700 nM), -0.034 ± 0.028; in the assay with Nonafluoropentanamide (20000 nM) it was -0.002 ± 0.034; with Nonafluoropentanamide (60000 nM) it was 0.032 ± 0.052. For the same test system, the “level (log10)” value is -0.0055 ± 0.019 in assay [3] (6700 nM); -0.0205 ± 0.023 in assay [3] (20000 nM); -0.0015 ± 0.019 in assay [3] (60000 nM); -0.022 ± 0.025 in assay [4] (1500 nM); 0.032 ± 0.018 in assay [4] (4400 nM); 0.0335 ± 0.054 in assay [4] (13000 nM). The “level (log10)” value in assay [4] (40000 nM) is -0.176 ± 0.016.

As to LPS:IL-1alpha, the “level (log10)” value in assay [1] (6700 nM) is 0.009 ± 0.011; in assay [1] (20000 nM), -0.0045 ± 0.015; in assay [1] (60000 nM) it was 0.0015 ± 0.06; with Heptafluorobutyl iodide (6700 nM) it was 0.019 ± 0.11; in the assay with Heptafluorobutyl iodide (20000 nM), 0.0205 ± 0.023; with Heptafluorobutyl iodide (60000 nM), 0.0485 ± 0.029. The “level (log10)” value was 0.0065 ± 0.04 in assay [2] (6700 nM); -0.017 ± 0.027 in assay [2] (20000 nM); -0.0125 ± 0.011 in assay [2] (60000 nM); -0.1 ± 0.011 with Nonafluoropentanamide (6700 nM); -0.102 ± 0.0099 with Nonafluoropentanamide (20000 nM); -0.0555 ± 0.0092 in the assay with Nonafluoropentanamide (60000 nM). Moreover, the “level (log10)” value in assay [3] (6700 nM) is 0.025 ± 0.034; in assay [3] (20000 nM), 0.0195 ± 0.05; in assay [3] (60000 nM), 0.0605 ± 0.023; in assay [4] (1500 nM), 0.0145 ± 0.026; in assay [4] (4400 nM), -0.0335 ± 0.032; in assay [4] (13000 nM), -0.004 ± 0.041. Also, the “level (log10)” value in assay [4] (40000 nM) is -0.178 ± 0.1.

Turning to SAg:CD69, the “level (log10)” value in assay [1] (6700 nM) was 0.025 ± 0.0085; in assay [1] (20000 nM) it was 0.0175 ± 0.005; in assay [1] (60000 nM) it was 0.0495 ± 0.026; in the assay with Heptafluorobutyl iodide (6700 nM), -0.0425 ± 0.043; with Heptafluorobutyl iodide (20000 nM), -0.045 ± 0.03; with Heptafluorobutyl iodide (60000 nM) it was -0.032 ± 0.037. The “level (log10)” value in assay [2] (6700 nM) is 0.001 ± 0.0085; in assay [2] (20000 nM), -0.0075 ± 0.018; in assay [2] (60000 nM), -0.0125 ± 0.00071; in the assay with Nonafluoropentanamide (6700 nM), -0.0095 ± 0.013; with Nonafluoropentanamide (20000 nM), -0.025 ± 0.0085; with Nonafluoropentanamide (60000 nM) it was -0.008 ± 0.0042. The “level (log10)” value is -0.0105 ± 0.0035 in assay [3] (6700 nM); 0.013 ± 0.0085 in assay [3] (20000 nM); 0.002 ± 0.0071 in assay [3] (60000 nM); 0.007 ± 0.011 in assay [4] (1500 nM); -0.0425 ± 0.015 in assay [4] (4400 nM); -0.0215 ± 0.00071 in assay [4] (13000 nM). In assay [4] (40000 nM), the “level (log10)” value was -0.111 ± 0.0042.

As to BE3C:HLA-DR, the “level (log10)” value in assay [1] (6700 nM) is 0.0065 ± 0.016; in assay [1] (20000 nM), 0.008 ± 0.0057; in assay [1] (60000 nM) it was -0.0025 ± 0.023; in the assay with Heptafluorobutyl iodide (6700 nM), -0.0055 ± 0.0064; with Heptafluorobutyl iodide (20000 nM), -0.022 ± 0.024; with Heptafluorobutyl iodide (60000 nM), -0.0035 ± 0.018. Also, the “level (log10)” value in assay [2] (6700 nM) was -0.0025 ± 0.012; in assay [2] (20000 nM), -0.0115 ± 0.0021; in assay [2] (60000 nM) it was 0.012 ± 0.031; with Nonafluoropentanamide (6700 nM) it was -0.005 ± 0.0042; in the assay with Nonafluoropentanamide (20000 nM) it was -0.016 ± 0.0071; with Nonafluoropentanamide (60000 nM), -0.016 ± 0.0057. The “level (log10)” value in assay [3] (6700 nM) is -0.0075 ± 0.013; in assay [3] (20000 nM) it was 0.0035 ± 0.015; in assay [3] (60000 nM) it was 0.0095 ± 0.018; in assay [4] (1500 nM) it was 0.0005 ± 0.013; in assay [4] (4400 nM) it was -0.02 ± 0.014; in assay [4] (13000 nM), -0.0755 ± 0.032. Moreover, the “level (log10)” value in assay [4] (40000 nM) was -0.406 ± 0.041.

Regarding BE3C:CXCL11/I-TAC, the “level (log10)” value was 0.005 ± 0.0028 in assay [1] (6700 nM); -0.002 ± 0.0042 in assay [1] (20000 nM); 0.002 ± 0.0057 in assay [1] (60000 nM); 0.005 ± 0.048 with Heptafluorobutyl iodide (6700 nM); -0.0175 ± 0.005 in the assay with Heptafluorobutyl iodide (20000 nM); 0.0245 ± 0.025 with Heptafluorobutyl iodide (60000 nM). The “level (log10)” value is -0.026 ± 0.013 in assay [2] (6700 nM); -0.0135 ± 0.016 in assay [2] (20000 nM); 0.008 ± 0.016 in assay [2] (60000 nM); 0.012 ± 0.0099 in the assay with Nonafluoropentanamide (6700 nM); 0.01 ± 0.017 with Nonafluoropentanamide (20000 nM); 0.003 ± 0.027 with Nonafluoropentanamide (60000 nM). Moreover, the “level (log10)” value was -0.0175 ± 0.0078 in assay [3] (6700 nM); -0.009 ± 0.0057 in assay [3] (20000 nM); 0.005 ± 0.011 in assay [3] (60000 nM); 0.0095 ± 0.005 in assay [4] (1500 nM); 0.0075 ± 0.0064 in assay [4] (4400 nM); 0.0185 ± 0.005 in assay [4] (13000 nM). Moreover, in assay [4] (40000 nM), the “level (log10)” value is -0.0685 ± 0.036.
